Source: patent publication EP0431741A2, “Substituted pyrimidineamino compounds” (Beecham Group p.l.c., priority 1989, dated 1991)

How the values were obtained:
[1] = test system: Spontaneously hypertensive rats; test: Antihypertensive activity: systolic blood pressure by tail cuff method; assay type: in vivo; conditions: for b.p. lower/dose: systolic blood pressure, spontaneously hypertensive rats; for active in test 1. (Antihypertensive Activity): result in words, no dose given
Method: Systolic blood pressures were recorded by a modification of the tail cuff method described by I.M. Claxton, M.G. Palfreyman, R.H. Poyser, R.L. Whiting, European Journal of Pharmacology, 37, 179 (1976). A W+W BP recorder, model 8005 was used to display pulses. Prior to all measurements rats were placed in a heated environment (33.5 ± 0.5 °C) before transfer to a restraining cage. Each determination of blood pressure was the mean of at least 5 readings. Spontaneously hypertensive rats (ages 12-18 weeks) with systolic blood pressures >180 mmHg were considered hypertensive.

trachea = test: Bronchodilator activity: relaxation of isolated tracheal spirals, relative to isoprenaline maximum; assay type: cell-based, guinea pigs; conditions: result in words; no value given
Method: Male guinea pigs (300-600g) were stunned by a blow to the head and bled from the carotid artery. The trachea was exposed, dissected free of connective tissue, and transferred to oxygenated Krebs solution at 37 °C. Next, spirals (2 per trachea) were prepared by cutting the whole trachea spirally along its longitudinal axis and then dividing this spiral lengthwise. Each preparation was mounted, using silk thread, in a 10ml organ bath filled with Krebs solution at 37 °C and bubbled with 5% CO₂ with O₂. The resting tension of the preparations was set at 2g and changes in muscle tension were monitored isometrically by means of a UFI (2oz) force and displacement transducer (Ormed Ltd) connected to a Linseis pen recorder. All preparations were allowed to equilibrate for 60 minutes. During this equilibration period the preparations were washed by upward displacement at 15 minute intervals and, if necessary, the resting tension was readjusted to 2g using a mechanical micromanipulator system.
Once a steady resting tension had been obtained, the preparations were dosed simultaneously with the test compound (10⁻⁸-2x10⁻⁵M), and finally a maximum relaxation achieved by addition of 10⁻³M isoprenaline. The fall in tension evoked by the test compound was expressed as a percentage of the total relaxation evoked in the presence of 10⁻³ isoprenaline. […]

In the case of CC1(C)Oc2ccc(C#N)cc2[C@@H](Nc2cc(Cl)ncn2)[C@@H]1O (racemic) [El, Trans-6-cyano-4-[(6-chloropyrimidin-4-yl)amino]-3,4-dihydro-2,2-dimethyl-2H-1-benzopyran-3-ol], the b.p. lower/dose ([1]; dose 0.15mgkg⁻¹) is reported as 38%/0.15mgkg⁻¹ and the b.p. lower/dose ([1]; dose 0.3mgkg⁻¹) is reported as 36%/0.3mgkg⁻¹.
For CNc1cc(N[C@@H]2c3cc(C#N)ccc3OC(C)(C)[C@H]2O)ncn1 (racemic) [Example 2], the “active in test 2. (Bronchodilator Activity)” value (trachea) was “active” and the “active in test 1. (Antihypertensive Activity)” value [1] was “active”.
CC1(C)Oc2ccc(C#N)cc2[C@@H](Nc2cc(N)ncn2)[C@@H]1O (racemic) [Example 3] was tested, and the “active in test 2. (Bronchodilator Activity)” value (trachea) was “active” and the “active in test 1. (Antihypertensive Activity)” value [1] was “active”.
